Columns and labels:
heterotopic ossification = experiment: Surgical mouse model of heterotopic ossification (rhBMP2 collagen disk implant); type: in vivo
Experimental: Disks were impregnated with 1µg total of recombinant human BMP-2 (GenScript, Piscataway, NJ, USA, catalog #Z02913, lot #P50031712) on the day of surgery (5µl of 200ng/µL BMP-2, reconstituted in 20mM acetic acid solution). The rhBMP2-soaked collagen disk was surgically implanted into a small pocket made in the left gastrocnemius muscle of a 6-8 week-old male CD-1 mouse.
At the study endpoint (Day 14: 16-30 hours after final compound treatment) left hindlimbs were removed and submitted to micro-CT (micro-computed tomography) imaging.
CT images were acquired using a VECTor^4CT pre-clinical scanner (MILabs B.V., Utrecht, Netherlands) equipped with a cone beam X-ray CT system. Scans were carried out with an acceleration voltage of 50 kVp and an X-ray tube current of 430 µA in accurate focus mode to obtain 3600 projections over a 360° scan. […] CT images were consequently processed using MILabs reconstruction software implementing a voxel size of 20 µm and a Hann projection filter of 25 µm to generate 3-dimensional CT images. For quantification, CT images were converted to DICOM® files using PMOD 3.9 software (PMOD Technologies Ltd., Zurich, Switzerland) for rendering using RadiAnt DICOM Viewer 4.2 software (Medixant, Poznań, Poland). The region-of-interest for all hindlimbs, reconstructed from DICOM files, was defined by outlining sites of ectopic ossification. Analysis of total ectopic bone volume was conducted via automated processes using the AnalyzePro software with the Bone Microarchitecture Analysis (BMA) add-on (AnalyzeDirect, Overland Park, Kansas).

ectopic bone formation = experiment: Genetic model of FOP (pinch injury, Acvr1 cR206H/+;Pdgfra-Cre+ mice); type: in vivo, mouse; conditions: for Mean ectopic bone volume D14 / percent change from vehicle (D14): day 14; for Mean ectopic bone volume D22 / percent change from vehicle (D22): day 22
Text: Acvr1^(cR206H/+) mice were obtained from the International Fibrodysplasia Ossificans Progressiva Association (IFOPA, North Kansas City, MO, USA). These animals harbour a Cre recombinase-inducible Acvr1 transgenic allele, which causes a switch from wild-type mouse ACVR1 protein expression to that of a chimeric mouse/human protein containing the R206H mutation seen in >95% of FOP patients. These animals were intercrossed with Pdgfra-Cre expressing mice (C57BL/6-Tg(PDGFRA-cre)1Clc/J mice, available through The Jackson Laboratory, Bar Harbor, ME, USA) which activates Cre recombination in fibro-adipogenic precursors, currently believed to be the cells of origin for FOP (Lees-Shepard, J.B., et al (2018) Nat Commun 9, 471.). Resulting study animals (ACVR1^(R206H/+);Pdgfra-Cre+) are susceptible to injury-induced ectopic bone formation. These animals were subjected to a bilateral gastrocnemius pinch procedure under anaesthesia, whereby a Halsted-mosquito hemostat (product#13008-12, Fine Science Tools Inc., North Vancouver, BC, Canada) is used to compress the gastrocnemius muscle, at its widest part, to approximately 2mm for 5s, and then released. This injury elicits robust ectopic bone formation within 10-14 days (for description of procedure see, Lyu, H., et al. (2021). Biomedicines 9(6).). Animals began treatment with various doses of compound 1 (0.5 mg/kg BID, 1 mg/kg BID, 2 mg/kg BID, 4 mg/kg BID, 7.5 mg/kg BID and 10 mg/kg BID or 2 mg/kg QD and 10 mg/kg QD) or palovarotene (1.76 mg/kg QD or 0.88 mg/kg QD) or corn oil vehicle on the day following the procedure for 21 days. Micro-CT imaging was performed on day 14 (under anaesthesia) and at study termination (day 22), as outlined above in Example 7. Sites of ectopic bone formation in the area of the injury were volumetrically quantified using Class stratification in Imalytics Preclinical software (version 3.0.2.3, Gremse-IT GmbH, Aachen, Germany) from DICOM renderings. Using this model, the utility of compound 1 in inhibiting bone formation in a genetic mouse model of FOP was illustrated (see Figure 11 and Table 3 below). […]

RAR = RAR transcriptional activation assay (RARE-luc MCF-7 cells); type: cell-based; conditions: 0.1 nM to 10 µM, 24 hours of treatment
Text: This retinoid transcriptional activity assay measures the ability of a test compound to induce expression of a RA-sensitive reporter construct. This assay utilizes MCF-7 cells stably transduced with a gene construct comprising 4 tandem RA-response elements linked to a promoter driving transcriptional expression of the firefly luciferase encoding mRNA (RARE-luc). This construct serves as a sensitive reporter of retinoid-like activity.
RARE-luc transduced MCF-7 cells were maintained in a RPMI-1640 medium containing 10% FBS. Cells were grown in 96-well plates, and treated with the test compound diluted in DMSO in duplicate at 0.1 nM, 1 nM, 10 nM, 100 nM, 1 µM and 10 µM final concentrations. As a positive control for reporter activation, cells were also treated with RA diluted in DMSO at the same concentrations. DMSO treatment alone served as a negative control. After 24 hours of treatment, cells were harvested lysis buffer (Molecular Devices, San Jose, USA) and luciferase activity in cell lysates were read using a luminometer.

growth plates = experiment: Long bone growth and growth plate toxicity in juvenile FVB mice; conditions: mouse, in vivo
Text: For both palovarotene and compound 1 efficacy and toxicity were correlated to the pharmacokinetic parameters AUC (area under the curve), Cmax (maximum concentration detected following compound administration), and duration above EC50/IC50.This illustrated that efficacy was best predicted by duration above the EC50/IC50 (effective concentration for 50% response (in the case of palovarotene), or for 50% inhibition (in the case of compound 1)), whereas toxicity was best predicted by Cmax. […] For palovarotene, efficacy data from Example 7 and toxicity data from Example 8 above were compiled with mined data from the following publications: • Lindborg et al (2018). "Cartilage-derived retinoic acid-sensitive protein (CD-RAP): A stage-specific biomarker of heterotopic endochondral ossification (HEO) in fibrodysplasia ossificans progressiva (FOP)." Bone 109: 153-157. • Chakkalakal, S. A., et al. (2016). "Palovarotene Inhibits Heterotopic Ossification and Maintains Limb Mobility and Growth in Mice With the Human ACVR1(R206H) Fibrodysplasia Ossificans Progressiva (FOP) Mutation." J Bone Miner Res 31(9): 1666-1675. • Inubushi, T., et al. (2018). "Palovarotene Inhibits Osteochondroma Formation in a Mouse Model of Multiple Hereditary Exostoses." J Bone Miner Res 33(4): 658-666. • Lees-Shepard, J. B., et al. (2018). […]

Structure (SMILES): CC1(C)CCC(C)(C)c2cc(Cn3cccn3)c(/C=C/c3ccc(C(=O)O)cc3)cc21 [palovarotene, reference compound]
- percent change in HO volume from vehicle mean (heterotopic ossification; 0.88mg/kg, 13 days, Day 14): +2.5%
- Mean ectopic bone volume D14 (ectopic bone formation; 0.88mg/kg QD): 2.42 ± 3.93 mm^3
- percent change from vehicle (D14) (ectopic bone formation; 0.88mg/kg QD): -78.0%
- Mean ectopic bone volume D22 (ectopic bone formation; 0.88mg/kg QD): 0.75 ± 0.97 mm^3
- percent change from vehicle (D22) (ectopic bone formation; 0.88mg/kg QD): -93.2%
- Mean ectopic bone volume D14 (ectopic bone formation; 1.76mg/kg QD): 1.54 ± 2.48 mm^3
- percent change from vehicle (D14) (ectopic bone formation; 1.76mg/kg QD): -86.1%
- Mean ectopic bone volume D22 (ectopic bone formation; 1.76mg/kg QD): 0.58 ± 0.96 mm^3
- percent change from vehicle (D22) (ectopic bone formation; 1.76mg/kg QD): -94.7%

Structure (SMILES): CC(C)(C)c1cccc(-c2cc3cc(/C=C/C(=O)O)ccc3[nH]2)c1 [compound 1, (E)-3-(2-(3-(tert-butyl)phenyl)-1H-indol-5-yl)acrylic acid]
- ectopic bone formation (heterotopic ossification; result in words, 2 to 18 mg/kg QD or BID, 14 days, micro-CT): dose-dependent decrease in ectopic bone formation from vehicle
- luciferase activity (RAR): did not induce luciferase activity significantly
- disturbances to the growth of long bones and microarchitecture of the growth plates (growth plates): not observed
- Mean ectopic bone volume D14 (ectopic bone formation; 0.5mg/kg BID): 5.31 ± 6.65 mm^3
- percent change from vehicle (D14) (ectopic bone formation; 0.5mg/kg BID): -51.9%
- Mean ectopic bone volume D22 (ectopic bone formation; 0.5mg/kg BID): 4.01 ± 7.71 mm^3
- percent change from vehicle (D22) (ectopic bone formation; 0.5mg/kg BID): -63.4%
- Mean ectopic bone volume D14 (ectopic bone formation; 1mg/kg BID): 4.88 ± 6.79 mm^3
- percent change from vehicle (D14) (ectopic bone formation; 1mg/kg BID): -55.8%
- Mean ectopic bone volume D22 (ectopic bone formation; 1mg/kg BID): 5.50 ± 10.67 mm^3
- percent change from vehicle (D22) (ectopic bone formation; 1mg/kg BID): -49.8%
- Mean ectopic bone volume D14 (ectopic bone formation; 2mg/kg BID): 4.62 ± 5.80 mm^3
- percent change from vehicle (D14) (ectopic bone formation; 2mg/kg BID): -58.1%
- Mean ectopic bone volume D22 (ectopic bone formation; 2mg/kg BID): 5.08 ± 7.90 mm^3
- percent change from vehicle (D22) (ectopic bone formation; 2mg/kg BID): -53.6%
- Mean ectopic bone volume D14 (ectopic bone formation; 2mg/kg QD): 3.61 ± 4.98 mm^3
- percent change from vehicle (D14) (ectopic bone formation; 2mg/kg QD): -67.3%
- Mean ectopic bone volume D22 (ectopic bone formation; 2mg/kg QD): 1.77 ± 1.73 mm^3
- percent change from vehicle (D22) (ectopic bone formation; 2mg/kg QD): -83.8%
- Mean ectopic bone volume D14 (ectopic bone formation; 4mg/kg BID): 1.54 ± 2.85 mm^3
- percent change from vehicle (D14) (ectopic bone formation; 4mg/kg BID): -86.1%
- Mean ectopic bone volume D22 (ectopic bone formation; 4mg/kg BID): 2.65 ± 6.33 mm^3
- percent change from vehicle (D22) (ectopic bone formation; 4mg/kg BID): -75.8%
- Mean ectopic bone volume D14 (ectopic bone formation; 7.5mg/kg BID): 0.26 ± 0.42 mm^3
- percent change from vehicle (D14) (ectopic bone formation; 7.5mg/kg BID): -97.6%
- Mean ectopic bone volume D22 (ectopic bone formation; 7.5mg/kg BID): 0.06 ± 0.16 mm^3
- percent change from vehicle (D14) (ectopic bone formation; 10mg/kg BID): -88.4%
- percent change from vehicle (D22) (ectopic bone formation; 10mg/kg BID): -87.2%
- Mean ectopic bone volume D14 (ectopic bone formation; 10mg/kg QD): 1.56 ± 3.61 mm^3
- percent change from vehicle (D14) (ectopic bone formation; 10mg/kg QD): -85.9%
- Mean ectopic bone volume D22 (ectopic bone formation; 10mg/kg QD): 2.13 ± 6.10 mm^3
- percent change from vehicle (D22) (ectopic bone formation; 10mg/kg QD): -80.6%
- efficacy in inhibiting bone formation (ectopic bone formation; result in words, comparison with palovarotene): at least as efficacious as clinically relevant doses of palovarotene
